# Data published in DBAASP.
# Values joined by “and” are separate entries in the source; they are usually repeats but may differ in a detail not shown here. Identical values can stand only once.
# Tests used:
# Test in all cases: ≥ marks a high value that may be exact or a test limit, other limits are often not marked, values filed in µg/mL are converted to µM
# [1] = test system: Salmonella typhimurium ATCC 7731
# [2] = test system: Pseudomonas aeruginosa ATCC 27853
# Escherichia coli UB1005 = test system: Escherichia coli UB1005
# [3] = test system: Escherichia coli ATCC 25922
# [4] = test system: Enterococcus faecalis ATCC 29212
# [5] = test system: Staphylococcus aureus ATCC 29213
# [6] = test system: Bacillus subtilis CMCC 63501
# [7] = test system: Salmonella enterica subsp. enterica serovar Typhimurium ATCC 14028
# [8] = test system: Pseudomonas aeruginosa PAO1
# [9] = test system: Staphylococcus epidermidis ATCC 12228
# [10] = test system: Pectobacterium carotovorum
# Pseudomonas putida = test system: Pseudomonas putida
# Candida albicans = test system: Candida albicans
# Saccharomyces cerevisiae = test system: Saccharomyces cerevisiae
# Escherichia coli = test system: Escherichia coli
# Cryptococcus neoformans = test system: Cryptococcus neoformans
# Salmonella typhimurium = test system: Salmonella typhimurium
# Streptococcus mutans = test system: Streptococcus mutans
# Streptococcus pneumoniae = test system: Streptococcus pneumoniae
# Bacillus subtilis = test system: Bacillus subtilis
# Serratia marcescens = test system: Serratia marcescens
# Staphylococcus aureus = test system: Staphylococcus aureus
# [11] = test system: Bacillus subtilis ATCC 6051
# [12] = test system: Escherichia coli NEB5alpha
# [13] = test system: Klebsiella aerogenes ATCC 13048
# Escherichia coli DL7 = test system: Escherichia coli DL7
# [14] = test system: Cronobacter sakazakii DPC 6440
# [15] = test system: Listeria monocytogenes LO28
# Micrococcus luteus = test system: Micrococcus luteus
# Bacillus megaterium = test system: Bacillus megaterium
# Aerococcus viridans = test system: Aerococcus viridans
smiles,measurement,setting,value
CC[C@H](C)[C@H](NC(=O)[C@H](CCC(=O)O)NC(=O)CNC(=O)[C@@H](NC(=O)[C@H](Cc1ccccc1)NC(=O)[C@H](C)NC(=O)[C@H](CCCCN)NC(=O)CNC(=O)[C@H](Cc1ccccc1)NC(=O)[C@H](CCCCN)NC(=O)[C@H](CCCCN)NC(=O)[C@H](C)N)C(C)C)C(=O)N[C@@H](CCSC)C(N)=O [AKKFGKAFVGEIM],MIC,[1],≥ 64 µM
same,MIC,[2],> 64 µM
same,MIC,Escherichia coli UB1005,≥ 64 µM
same,MIC,[3],32 µM
same,MIC,[4],> 64 µM
same,MIC,[5],> 64 µM
same,MIC,[6],≥ 64 µM
same,MIC,[7],> 64 µM
same,MIC,[8],> 64 µM
same,MIC,[9],> 64 µM
CC[C@H](C)[C@H](NC(=O)[C@H](C)NC(=O)[C@@H](N)CS)C(=O)N[C@@H](CCC(=O)O)C(=O)N[C@@H](Cc1cnc[nH]1)C(=O)N[C@@H](CCSC)C(=O)N[C@@H](CCCN=C(N)N)C(=O)N[C@H](C(=O)N1CCC[C@H]1C(=O)N[C@@H](CC(C)C)C(=O)N[C@@H](CCCCN)C(=O)N1CCC[C@H]1C(=O)N[C@@H](Cc1ccccc1)C(=O)N[C@@H](CO)C(=O)N[C@@H](Cc1ccccc1)C(=O)NCC(=O)N1CCC[C@H]1C(=O)N1CCC[C@H]1C(=O)N[C@@H](Cc1ccc(O)cc1)C(=O)N[C@@H](CC(N)=O)C(=O)N[C@@H](CC(C)C)C(=O)O)[C@@H](C)O [CAIEHMRTPLKPFSFGPPYNL],MIC,[10],3.46 µM
CC(C)C[C@H](NC(=O)CN)C(=O)N[C@@H](CCC(N)=O)C(=O)N[C@@H](Cc1ccccc1)C(=O)N1CCC[C@H]1C(=O)N[C@H](C(=O)NCC(=O)N[C@@H](CCCN=C(N)N)C(=O)N[C@H](C(=O)N[C@@H](Cc1cnc[nH]1)C(=O)N[C@@H](CCCN=C(N)N)C(=O)N[C@@H](CC(C)C)C(=O)N[C@@H](CC(C)C)C(=O)N[C@@H](CCCN=C(N)N)C(=O)N[C@@H](CCCCN)C(=O)O)C(C)C)C(C)C [GLQFPVGRVHRLLRK],MIC,Pseudomonas putida,2.25 µM
same,MIC,Candida albicans,4.5 µM
same,MIC,Saccharomyces cerevisiae,4.5 µM
same,MIC,Escherichia coli,2.25 µM
same,MIC,Cryptococcus neoformans,4.5 µM
same,MIC,Salmonella typhimurium,1.13 µM
same,MIC,Streptococcus mutans,2.25 µM
same,MIC,Streptococcus pneumoniae,2.25 µM
same,MIC,Bacillus subtilis,2.25 µM
same,MIC,Serratia marcescens,1.13 µM
same,MIC,Staphylococcus aureus,4.5 µM
CC[C@H](C)[C@H](N)C(=O)N[C@@H](CC(N)=O)C(=O)NCC(=O)N[C@@H](CCSC)C(=O)N1CCC[C@H]1C(=O)N[C@@H](CCC(=O)O)C(=O)N[C@@H](CCC(=O)O)C(=O)N[C@H](C(=O)N[C@H](C(=O)N[C@@H](C)C(=O)N[C@@H](C)C(=O)O)C(C)C)C(C)C [INGMPEEVVAA],MIC,[11],≥ 1000 µM
same,MIC,[12],≥ 1000 µM
CC[C@H](C)[C@H](NC(=O)[C@H](C)NC(=O)[C@@H](NC(=O)[C@@H]1CCCN1C(=O)[C@@H](NC(=O)[C@H](CC(C)C)NC(=O)[C@@H]1CCCN1C(=O)[C@H](Cc1c[nH]c2ccccc12)NC(=O)[C@H](Cc1ccccc1)NC(=O)[C@H](CCCN=C(N)N)NC(=O)[C@@H](N)CCCCN)C(C)C)C(C)C)C(=O)N[C@@H](CC(N)=O)C(=O)N[C@H](C(=O)N[C@H](C(=O)N[C@@H](C)C(N)=O)C(C)C)[C@@H](C)O [KRFWPLVPVAINTVA],MIC,[1],≥ 128 µM
same,MIC,[2],> 128 µM
same,MIC,Escherichia coli UB1005,≥ 64 µM
same,MIC,[3],> 128 µM
same,MIC,[5],> 128 µM
same,MIC,[6],≥ 128 µM
same,MIC,[7],> 128 µM
same,MIC,[9],128 µM
CC(C)C[C@H](NC(=O)[C@H](CCCN=C(N)N)NC(=O)[C@H](CC(C)C)NC(=O)[C@H](CC(C)C)NC(=O)[C@H](CCC(N)=O)NC(=O)[C@H](CCC(=O)O)NC(=O)[C@@H](N)CC(C)C)C(=O)N[C@@H](CCCCN)C(=O)N[C@@H](CCCCN)C(=O)N[C@@H](Cc1ccc(O)cc1)C(=O)O [LEQLLRLKKY],MIC,[11],≥ 1270 µM
same,MIC,[12],≥ 633 µM
CC[C@H](C)[C@H](NC(=O)CNC(=O)CNC(=O)[C@@H](NC(=O)[C@@H]1CCCN1C(=O)[C@H](Cc1ccccc1)NC(=O)[C@H](CCC(N)=O)NC(=O)[C@H](CC(C)C)NC(=O)CNC(=O)[C@H](C)NC(=O)[C@@H](N)CCCN=C(N)N)C(C)C)C(=O)NCC(=O)N[C@@H](CCCCN)C(=O)N[C@@H](Cc1ccccc1)C(=O)N[C@@H](CC(C)C)C(=O)N[C@@H](Cc1cnc[nH]1)C(=O)N[C@@H](CO)C(=O)N[C@@H](C)C(=O)N[C@@H](CCCCN)C(=O)N[C@@H](CCCCN)C(=O)N[C@@H](Cc1ccccc1)C(=O)NCC(=O)N[C@@H](CCCCN)C(=O)O [RAGLQFPVGGIGKFLHSAKKFGK],MIC,Pseudomonas putida,13.1 µM
same,MIC,Candida albicans,1.64 µM
same,MIC,Saccharomyces cerevisiae,1.64 µM
same,MIC,Escherichia coli,6.55 µM
same,MIC,Cryptococcus neoformans,1.64 µM
same,MIC,Salmonella typhimurium,3.27 µM
same,MIC,Streptococcus mutans,6.55 µM
same,MIC,Streptococcus pneumoniae,6.55 µM
same,MIC,Bacillus subtilis,6.55 µM
same,MIC,Serratia marcescens,6.55 µM
same,MIC,Staphylococcus aureus,6.55 µM
CC[C@H](C)[C@H](NC(=O)[C@@H](N)C(C)C)C(=O)N[C@@H](Cc1cnc[nH]1)C(=O)N[C@@H](CCCCN)C(=O)N[C@@H](CC(C)C)C(=O)N[C@@H](C)C(=O)N[C@@H](CCCCN)C(=O)N[C@@H](CC(C)C)C(=O)N[C@@H](C)C(=O)N[C@@H](CCCCN)C(=O)N[C@@H](CCCCN)C(=O)N[C@@H](CC(C)C)C(=O)N[C@@H](C)C(=O)N[C@@H](CCCCN)C(=O)N[C@@H](CC(C)C)C(=O)N[C@@H](C)C(=O)N[C@@H](CCCCN)C(N)=O [VIHKLAKLAKKLAKLAK],MIC,[13],≥ 32 µM
same,MIC,Escherichia coli DL7,0.25 µM and 0.125 µM
same,MIC,[9],0.25 µM
CC[C@H](C)[C@H](NC(=O)[C@@H](NC(=O)[C@H](CCCCN)NC(=O)[C@@H](NC(=O)[C@H](CCCCN)NC(=O)[C@H](C)NC(=O)[C@H](CCC(N)=O)NC(=O)[C@@H](NC(=O)[C@@H](N)Cc1c[nH]c2ccccc12)[C@@H](C)CC)[C@@H](C)O)C(C)C)C(=O)N[C@@H](C)C(=O)N[C@@H](Cc1ccc(O)cc1)C(=O)N[C@H](C(=O)N[C@@H](CCCN=C(N)N)C(=O)N[C@@H](Cc1ccc(O)cc1)C(=O)N[C@@H](CC(C)C)C(=O)O)C(C)C [WIQAKTKVIAYVRYL],MIC,[14],19.5 µM
same,MIC,[15],2.44 µM
CC[C@H](C)[C@H](NC(=O)[C@@H](N)Cc1c[nH]c2ccccc12)C(=O)N[C@@H](CCC(N)=O)C(=O)N1CCC[C@H]1C(=O)N[C@@H](CCCCN)C(=O)N[C@H](C(=O)N[C@@H](CCCCN)C(=O)N[C@H](C(=O)N[C@H](C(=O)N1CCC[C@H]1C(=O)N[C@@H](C)C(=O)N[C@H](C(=O)N[C@@H](CCCN=C(N)N)C(=O)N[C@@H](C)C(=O)N[C@@H](CC(C)C)C(=O)O)C(C)C)[C@@H](C)CC)C(C)C)[C@@H](C)O [WIQPKTKVIPAVRAL],MIC,[14],≥ 312 µM
same,MIC,[15],≥ 156 µM
CSCC[C@H](NC(=O)[C@H](CCCN=C(N)N)NC(=O)[C@H](CCC(N)=O)NC(=O)[C@@H]1CSSC[C@H](NC(=O)[C@@H](N)Cc2ccc(O)cc2)C(=O)N[C@@H](CC(N)=O)C(=O)N[C@@H](CCCN=C(N)N)C(=O)N[C@@H](CCCN=C(N)N)C(=O)N[C@@H]([C@@H](C)O)C(=O)NCC(=O)N[C@@H](CCCCN)C(=O)N1)C(=O)O [YCNRRTGKCQRM],MIC,Micrococcus luteus,28.3 µM
same,MIC,Bacillus megaterium,28.3 µM
same,MIC,Aerococcus viridans,28.3 µM
